Assay results from patent US20230100062A1, “ANTIMICROBIAL PEPTIDES” (priority 2019, published 2023).
≈ marks a conversion by molar mass, not a printed value. Square brackets hold non-standard residues; d marks the D form. Ends that are not written are not given here. * marks the point of attachment. For = O=C*

Tests used:
B. subtilis (ATCC 6633) = assay: microbe, parasite or virus in culture; assay type: cell-based
Experimental: (§1) Minimum Inhibitory Concentrations assay. Minimum inhibitory concentrations (MICs) were determined by broth microdilution on P. aeruginosa, E. coli, S. aureus, M. luteus, B. subtilis, S. typhimurium and K. pneumoniae according to the Clinical and Laboratory Standards Institute. Typically, 100 μL of 0.5-1×10^6 CFU per ml of each bacterium in Mueller Hinton media broth (Oxoid) were incubated in 96-well microtiter plates with 100 μL of serial two-fold dilutions of the corresponding antimicrobial agent (from 100 to 0 μM) at 37° C. on a 3D orbital shaker. The absorbance was measured after the addition of NI01, its derivatives or an antibiotic at 600 nm using a SpectraMax i3× Multi-Mode Microplate Reader (Molecular Devices). MICs were defined as the lowest protein concentration that inhibited visible bacterial growth after 24 h at 37° C.

E. coli (ATCC 15597) = assay: microbe, parasite or virus in culture; assay type: cell-based
Experimental: as §1

[1] = test system: K. pneumoniae (NCTC 5055); assay: microbe, parasite or virus in culture; assay type: cell-based
Experimental: as §1

M. luteus (ATCC 49732) = assay: microbe, parasite or virus in culture; assay type: cell-based
Experimental: as §1

[2] = test system: P. aeruginosa (ATCC 27853); assay: microbe, parasite or virus in culture; assay type: cell-based; conditions: for antibacterial activity in words: P. aeruginosa, summary of MICs
Experimental: as §1

S. aureus (ATCC 6538) = assay: microbe, parasite or virus in culture; assay type: cell-based; conditions: for antibacterial activity in words: S. aureus, summary of MICs
Experimental: as §1

S. typhimurium (DA6192) = assay: Minimum inhibitory concentration, broth microdilution; assay type: cell-based; conditions: 24 h at 37° C.
Experimental: as §1

Hemolysis assay = assay type: cell-based, human; conditions: human, human erythrocytes, 10% (vol/vol) suspension, pH 7.2
Experimental: (§2) Hemolysis assay. Hemolysis was determined using human erythrocytes sourced commercially from Cambridge Bioscience Ltd. and used within two days. 10% (vol/vol) suspensions of human erythrocytes were incubated with NI01, its derivatives or antibiotics. The cells were rinsed four times in 10 mM phosphate buffer saline (PBS, GibcoTM), pH 7.2, by repeated centrifugation and re-suspension (3 min at 3000×g). The cells were then incubated at room temperature for 1 h in either deionized water (fully hemolysed control), PBS, or with a corresponding antimicrobial agent in PBS. After centrifugation at 10,000×g for 5 min, the supernatant was separated from the pellet, and the absorbance was measured at 550 nm using a SpectraMax i3× Multi-Mode Microplate Reader (Molecular Devices). Absorbance of the suspension treated with deionized water defined complete hemolysis. The values given in Table S2 correspond to concentrations needed to lyse half of the sample population (50% lysis of erythrocytes) and are expressed as median hemolytic doses—HD50.

Human erythrocytes = assay: Hemolysis assay; assay type: cell-based
Experimental: as §2

mammalian cells lines = conditions: cited from earlier work
[3] = In-liquid AFM imaging of SLBs mimicking bacterial membranes; conditions: 0.25 μM
Excerpt: Lipid Vesicle Preparation. 1-palmitoyl-2-oleoyl-glycero-3-phosphocholine (POPC) with 1-palmitoyl-2-oleoyl-sn-glycero-3-phospho-(1′-rac-glycerol) (POPG) lipids used for vesicle construction were from Avanti Polar Lipids (Alabaster, USA). POPC was used as mammalian model membranes, and POPC/POPG (3:1, molar ratios) was used as bacterial model membranes. The lipids were weighted up, dissolved in chloroform-methanol (2:1, vol/vol), and dried under a nitrogen stream to form a thin film. The film was hydrated in 10 mM phosphate buffer (pH 7.4), vortexed for 2 min and bath sonicated for 30 min. The obtained suspension was extruded using a hand-held extruder (Avanti Polar lipids) (29 times, polycarbonate filter, 0.05 μm) to give a clear solution of small unilamellar vesicles, which were analysed (50 nm) by photon correlation spectroscopy (ZEN3600; Malvern Instruments, UK) following the re-suspension of vesicles to a final concentration of 1 mg/mL. Dynamic light scattering batch measurements were carried out in a low volume disposable cuvette at 25° C. Hydrodynamic radii were obtained through the fitting of autocorrelation data using the manufacturer's Dispersion Technology Software (version 5.10).
Preparation of SLBs for in-liquid AFM imaging. SLBs were formed using a vesicle fusion method as described elsewhere.^19 Freshly prepared vesicles (1.5 μL, 3 mg/mL) were added to cleaved mica that was pre-hydrated in 20 mM MOPS, 120 mM NaCl, 20 mM MgCl2 (pH 7.4).
After incubation over 45 min, the samples were washed 10 times with imaging buffer (20 mM MOPS, with 120 mM NaCl, pH 7.4) to remove unfused vesicles. The resulting SLBs were checked to confirm they were defect free. Mica discs (Agar Scientific, Stansted, UK) were glued to a metal puck, and freshly cleaved prior to lipid deposition.
In-liquid AFM imaging of SLBs. The topographic imaging of SLBs in aqueous buffers was performed on a Multimode 8 AFM system (Bruker AXS, USA) using Peak Force Tapping™ mode and MSNL-E cantilevers (Bruker AFM probes, USA). Images were taken at the PeakForce frequency of 2 kHz, PeakForce amplitude of 10-20 nm and PeakForce set-point of 10-30 mV (<100 pN). The images were then processed using Gwyddion (http://gwyddion.net) for line-by-line background subtraction (flattening) and plane fitting. NI01 or its derivatives were introduced into a 100-μL fluid cell (Bruker AXS, USA) to the final concentrations stated.

EMRSA (12817) = assay type: cell-based, S. aureus
Experimental: as §1

EMRSA (12845) = assay type: cell-based, S. aureus
Experimental: as §1

EMRSA (12873) = assay type: cell-based, S. aureus
Experimental: as §1

[4] = Thermal unfolding by CD spectroscopy; assay type: physicochemical; conditions: 20 μM protein, pH 7.4, 10 mM phosphate buffer
Experimental: Circular Dichroism Spectroscopy. Aqueous peptide solutions (300 μL, at a given concentration) were prepared in filtered (0.22 μm), 10 mM phosphate buffer, pH 7.4. CD spectra recorded in the presence of synthetic membranes are for L/P molar ratio of 100. All CD spectra were recorded on a JASCO J-810 spectropolarimeter fitted with a Peltier temperature controller. All measurements were taken in ellipticities in mdeg and converted to molar ellipticities by normalizing for the concentration of peptide bonds and cuvette path length ([θ], deg cm2 dmol−1 res−1). The data collected with a 1 nm step and 1 s collection time per step are presented as the average of 4 scans. Thermal denaturation curves were recorded with 2° C. intervals using 1 nm bandwidth, 180 s equilibration time for each spectrum and with 2° C./min ramp rate.

[5] = K. pneumoniae (NCTC 5055), 24 h at 37° C.

CC1(C)S[C@@H]2[C@H](NC(=O)[C@H](N)c3ccccc3)C(=O)N2[C@H]1C(=O)O [ampicillin, reference compound]
MIC (B. subtilis (ATCC 6633); Bacillus subtilis, ATCC6633, B. subtilis (ATCC 6633), 24 h at 37° C., read-out: Minimum Inhibitory Concentration): 9 µg/mL (≈ 25.8 µM)
MIC (E. coli (ATCC 15597); Escherichia coli, ATCC15597, E. coli (ATCC 15597), 24 h at 37° C., read-out: Minimum Inhibitory Concentration): 24 µg/mL (≈ 68.7 µM)
MIC ([1]; Klebsiella pneumoniae, NCTC5055, K. pneumoniae (NCTC 5055), 24 h at 37° C., read-out: Minimum Inhibitory Concentration): 5 µg/mL (≈ 14.3 µM)
MIC (M. luteus (ATCC 49732); Micrococcus luteus, ATCC49732, M. luteus (ATCC 49732), 24 h at 37° C., read-out: Minimum Inhibitory Concentration): 1 µg/mL (≈ 2.86 µM)
MIC ([2]; Pseudomonas aeruginosa, ATCC27853, P. aeruginosa (ATCC 27853), 24 h at 37° C., read-out: Minimum Inhibitory Concentration): 8 µg/mL (≈ 22.9 µM)
MIC (S. aureus (ATCC 6538); Staphylococcus aureus, ATCC6538, S. aureus (ATCC 6538), 24 h at 37° C., read-out: Minimum Inhibitory Concentration): 1 µg/mL (≈ 2.86 µM)
MIC (S. typhimurium (DA6192); Salmonella enterica): 8 µg/mL (≈ 22.9 µM)

CC[C@H](C)[C@H](NC(=O)CN)C(=O)NCC(=O)N[C@@H](C)C(=O)N[C@H](C(=O)N[C@@H](CC(C)C)C(=O)N[C@@H](CCCCN)C(=O)N[C@H](C(=O)N[C@@H](CC(C)C)C(=O)N[C@H](C(=O)N[C@H](C(=O)NCC(=O)N[C@@H](CC(C)C)C(=O)N1CCC[C@H]1C(=O)N[C@@H](C)C(=O)N[C@@H](CC(C)C)C(=O)N[C@H](C(=O)N[C@@H](CO)C(=O)N[C@@H](Cc1c[nH]c2ccccc12)C(=O)N[C@H](C(=O)N[C@@H](CCCCN)C(=O)N[C@@H](CCCNC(=N)N)C(=O)N[C@@H](CCCCN)C(=O)N[C@@H](CCCNC(=N)N)C(=O)N[C@@H](CCC(N)=O)C(=O)N[C@@H](CCC(N)=O)C(N)=O)[C@@H](C)CC)[C@@H](C)CC)[C@@H](C)O)[C@@H](C)O)C(C)C)C(C)C [melittin]
Minimum Inhibitory Concentration [1, 5]: 9 µg/mL

For-MAAFMKLIQFLATKGQKYVSLAWKHKGTILKWINAGQSFEWIYKQIKKLWA [NI01, epidermicin NI01]
HC50 at 1 h (Hemolysis assay): 500 µg/mL
hemolytic activity in words (Human erythrocytes): non-hemolytic
toxicity towards mammalian cells lines (mammalian cells lines): negligible levels of toxicity

For-[dM][dA][dA][dF][dM][dK][dL][dI][dQ][dF][dL][dA][dT][dK]G[dQ][dK][dY][dV][dS][dL][dA][dW][dK][dH][dK]G[dT][dI][dL][dK][dW][dI][dN][dA]G[dQ][dS][dF][dE][dW][dI][dY][dK][dQ][dI][dK][dK][dL][dW][dA] [NI01 D-form]
HC50 at 1 h (Hemolysis assay): 600 µg/mL
hemolytic activity in words (Human erythrocytes): non-hemolytic
mode of membrane disruption (AFM) [3]: strikingly similar pattern to that of the all-L form

H-MAAFMKLIQFLATKGQKYVSLAWKHKGTILKWIN-NH2 [α1α2α3]
Minimum Inhibitory Concentration (B. subtilis (ATCC 6633); ATCC 6633, 24 h): 6 µg/mL
Minimum Inhibitory Concentration (E. coli (ATCC 15597); ATCC 15597, 24 h): 6 µg/mL
Minimum Inhibitory Concentration ([1]; NCTC 5055, 24 h): 20 µg/mL
Minimum Inhibitory Concentration (M. luteus (ATCC 49732); ATCC 49732, 24 h): 6 µg/mL
Minimum Inhibitory Concentration ([2]; ATCC 27853, 24 h): 12 µg/mL
Minimum Inhibitory Concentration (S. aureus (ATCC 6538); ATCC 6538, 24 h): 6 µg/mL
HC50 at 1 h (Hemolysis assay): 200 µg/mL
Minimum Inhibitory Concentration (EMRSA (12817)): 32 µg/mL
Minimum Inhibitory Concentration (EMRSA (12845)): 32 µg/mL
Minimum Inhibitory Concentration (EMRSA (12873)): 32 µg/mL
mode of membrane disruption (AFM) [3]: two predicted modes of membrane disruption were evident

KGTILKWINAGQSFEWIYKQIKKLWA-NH2 [α3α4]
antibacterial activity in words [2]: ineffective
antibacterial activity in words (S. aureus (ATCC 6538)): equally effective
HC50 at 1 h (Hemolysis assay): 150 µg/mL
mode of membrane disruption (AFM) [3]: mixed mode of membrane disruption

KYVSLAWKHKGTILKWINAGQSFEWIYKQIKKLWA-NH2 [α2α3α4]
HC50 at 1 h (Hemolysis assay): 200 µg/mL

MAAFMKLIQFLATKGQKYVSLAWK-NH2 [α1α2]
antibacterial activity in words [2]: ineffective
antibacterial activity in words (S. aureus (ATCC 6538)): equally effective
HC50 at 1 h (Hemolysis assay): 150 µg/mL
mode of membrane disruption (AFM) [3]: extended petal-like pores

MAAFMRLIQFLATRGQRYVSLAWRRRGTILRWINAGQSFEWIYRQIRRLWA-NH2 [NI01 R-mutant]
Minimum Inhibitory Concentration (B. subtilis (ATCC 6633); ATCC 6633, 24 h): 18 µg/mL
Minimum Inhibitory Concentration (E. coli (ATCC 15597); ATCC 15597, 24 h): 9 µg/mL
Minimum Inhibitory Concentration ([1]; NCTC 5055, 24 h): 18 µg/mL
Minimum Inhibitory Concentration (M. luteus (ATCC 49732); ATCC 49732, 24 h): 2 µg/mL
Minimum Inhibitory Concentration ([2]; ATCC 27853, 24 h): >300 µg/mL
Minimum Inhibitory Concentration (S. aureus (ATCC 6538); ATCC 6538, 24 h): 5 µg/mL
HC50 at 1 h (Hemolysis assay): 250 µg/mL
hemolytic activity in words (Human erythrocytes): drastically increased
mode of membrane disruption (AFM) [3]: exclusively thinning patches

QKYVSLAWKHKGTILKWINA-NH2 [α2α3]
concentration showing no hemolytic activity (Human erythrocytes): > 600 µg/mL

aureocin A53
transition midpoint (TM) of thermal unfolding [4]: ~54 °C
mode of membrane disruption (AFM) [3]: membrane thinning patches and transmembrane lesions and pores

polymyxin B [reference compound]
Minimum Inhibitory Concentration (B. subtilis (ATCC 6633); B. subtilis (ATCC 6633), 24 h at 37° C.): 4 µg/mL
Minimum Inhibitory Concentration (E. coli (ATCC 15597); E. coli (ATCC 15597), 24 h at 37° C.): 2 µg/mL
Minimum Inhibitory Concentration [1, 5]: 4 µg/mL
Minimum Inhibitory Concentration (M. luteus (ATCC 49732); M. luteus (ATCC 49732), 24 h at 37° C.): 2 µg/mL
Minimum Inhibitory Concentration ([2]; P. aeruginosa (ATCC 27853), 24 h at 37° C.): 2 µg/mL
Minimum Inhibitory Concentration (S. aureus (ATCC 6538); S. aureus (ATCC 6538), 24 h at 37° C.): 32 µg/mL
Minimum Inhibitory Concentration (S. typhimurium (DA6192)): 2 µg/mL
HD30, median hemolytic doses to achieve 50% lysis (Human erythrocytes; Human erythrocytes, 1 h at room temperature): 350 µg/mL
